Patent US20170157110A1, “METHODS FOR INDUCING INSULIN PRODUCTION AND USES THEREOF” (UNIVERSITE DE GENEVE, priority 2014, published 2017)

How the values were obtained:
β-cells = format: in vivo, mice; details: 2 weeks following DT administration; ablation at 2 weeks of age
α-cells = test: α-cell lineage tracing after β-cell ablation in Glucagon-rtTA; TetO-Cre; R26-YFP; RIP-DTR pups; format: in vivo, mice; details: DT at 2 weeks of age
FoxO1 [1] = molecular target: T1, FoxO1 (Mus musculus, UniProt Q9R1E0); parameters: endogenous in cells; host or cells: Somatostatin-Cre; R26-YFP; RIP-DTR mice (pancreatic islets, δ-cells), in vivo; details: oral administration, diabetic db/db mice; cited from earlier work
FoxO1 [2] = molecular target: T1, FoxO1; test: Transient FoxO1 inhibition in β-cell-ablated (and non-ablated control) adult Somatostatin-Cre; R26-YFP; RIP-DTR mice: δ-cell conversion into insulin+ cells
[3] = administered immediately after DT ablation, analysed 1mpa, adult mice

T1 sequence (Q9R1E0 whole entry): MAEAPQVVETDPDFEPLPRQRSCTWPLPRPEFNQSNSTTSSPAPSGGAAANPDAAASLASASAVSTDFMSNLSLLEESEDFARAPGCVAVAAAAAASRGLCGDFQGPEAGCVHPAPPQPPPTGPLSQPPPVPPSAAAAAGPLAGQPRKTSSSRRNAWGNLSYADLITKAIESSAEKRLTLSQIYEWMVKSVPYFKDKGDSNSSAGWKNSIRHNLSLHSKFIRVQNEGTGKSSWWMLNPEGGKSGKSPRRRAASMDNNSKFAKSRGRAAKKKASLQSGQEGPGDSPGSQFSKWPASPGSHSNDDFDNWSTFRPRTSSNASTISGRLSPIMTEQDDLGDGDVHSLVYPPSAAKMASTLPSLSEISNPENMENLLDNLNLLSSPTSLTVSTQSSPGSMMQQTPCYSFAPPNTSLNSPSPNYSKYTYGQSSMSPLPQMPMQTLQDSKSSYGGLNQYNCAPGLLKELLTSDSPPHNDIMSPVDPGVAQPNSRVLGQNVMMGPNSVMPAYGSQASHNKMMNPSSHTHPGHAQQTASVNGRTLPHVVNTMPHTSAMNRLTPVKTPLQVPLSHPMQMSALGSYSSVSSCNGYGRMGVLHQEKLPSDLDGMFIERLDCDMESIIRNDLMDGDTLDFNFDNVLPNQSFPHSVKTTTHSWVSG

insulin+ cells more abundant (FoxO1 [2]; AS1842856 given for 1 week immediately after DT ablation, analysed 1 month post ablation (1mpa), adult mice, 30 mg/kg i.p. daily) [fold]	fraction of YFP+ cells that expressed insulin only (FoxO1 [2]; [3])	insulin+ cells that were YFP+, i.e. dedifferentiated δ-cells (FoxO1 [2]; [3]) [%]	δ-cell de-differentiation upon transient FoxO1 inhibition (FoxO1 [2]; adult mice, AS1842856 for 1 week)	effect on insulin expression induction (FoxO1 [2]; non-ablated control mice)	Molecule	β-cells lost (β-cells) [%]	YFP+/insulin+ (% cells; 1.5 mpa) (α-cells) [%]	fasting plasma glucose level (FoxO1 [1])
–	–	–	–	–	Diphtheria toxin [DT]	99	0.23	–
11	one-fourth	93	de-differentiate	minimal effect	CCn1cc(C(=O)O)c(=O)c2c(N)c(F)c(NC3CCCCC3)cc21 [AS1842856, 5-amino-7-(cyclohexylamino)-1-ethyl-6-fluoro-4-oxo-1,4-dihydroquinoline-3-carboxylic acid]	–	–	drastic decrease
